Laboratory results taken from patent US20240216900A1, “SABRE CATALYSTS CONTAINING FLUORINATED CARBON CHAINS FOR DELIVERY OF METAL-FREE MRI CONTRAST AGENTS” (The U.S.A., as represented by the Secretary, Department of …, priority 2022, published 2024).

Tests used:
[1] = cited from earlier work
[2] = Relaxation dynamics of hyperpolarized [1-13C]pyruvate (build-up time Tb and T1)
[3] = as above; remark: listed apart in the source
Source text: In addition, the relaxation dynamics of the [1-^13C]pyruvate were also studied.
In addition, relaxation dynamics at earth field and 1.8 T are about the same as a non-fluorinated SABRE catalyst T1=28.9±1.6 s and 66.5±7 s, respectively.

[4] = Example 7: Example 4 catalyst, DMSO, methanol
[5] = Example 25: Example 4 catalyst, DMSO, NFBME/MeOD fluorous mixture
[6] = Example 31: Example 4 catalyst, DMSO, CD3OD/Novec 7100
[7] = Example 32: Example 4 catalyst, PTMSO, CD3OD/Novec 7100

Structure (SMILES)	H2 solubility in water [1]	T1 (relaxation at 0.4 μT) [2, 4] [s]	T1 (relaxation at 0.4 μT) [2, 5] [s]	T1 (relaxation at 0.4 μT) [2, 6] [s]	T1 (relaxation at 0.4 μT) [2, 7] [s]	T1 at 1.8T [3, 4] [s]	T1 at earth field [3, 4] [s]	T1 at 1.8T [3, 5] [s]	T1 at earth field [3, 5] [s]	T1 at 1.8T [3, 6] [s]	T1 at earth field [3, 6] [s]	T1 at 1.8T [3, 7] [s]	T1 at earth field [3, 7] [s]
[HH] [Example H2]	about 1.6 mg/L												
CC(=O)C(=O)O [[1-^13C]pyruvate, sodium [1-^13C]pyruvate]		16.1 ± 0.9	11.3 ± 1.3	12.6 ± 1.1	18.0 ± 0.8	66.5 ± 7	28.9 ± 1.6	16.0 ± 1.4	9.0 ± 1.9	66.5 ± 3.6	9.3 ± 0.8	59.0 ± 8.1	14.9 ± 1.0
